Legend:
[1] = test system: CYP3A; assay: Example 2 phase 1 drug-drug interaction study, rivoceranib 700 mg QD + 5+1 cocktail: midazolam probe; set-up: AUC(0-t), Mean (CV %), 5 + 1 cocktail alone / AUC(0-t), Geometric LSM, 5 + 1 cocktail alone / AUC(0-t), Mean (CV %), Rivoceranib plus 5 + 1 cocktail / AUC(0-t), Geometric LSM, Rivoceranib plus 5 + 1 cocktail / AUC(0-∞), Mean (CV %), 5 + 1 cocktail alone / AUC(0-∞), Geometric LSM, 5 + 1 cocktail alone / AUC(0-∞), Mean (CV %), Rivoceranib plus 5 + 1 cocktail / AUC(0-∞), Geometric LSM, Rivoceranib plus 5 + 1 cocktail: unit not given beside the values; conditions: for AUC(0-t), Geometrical mean Ratio, % (90% CI) / AUC(0-∞), Geometrical mean Ratio, % (90% CI) / Cmax, Geometrical mean Ratio, % (90% CI): rivoceranib 700 mg QD, 100*LSM Rivoceranib Plus 5+1 Cocktail/LSM 5+1 Cocktail Alone; for AUC(0-t) / AUC(0-inf) / Cmax: human, in vivo
Description: (§1) This example describes a pharmacokinetic interaction study in healthy human volunteers dosed with 700 mg rivoceranib and a mixture of cytochrome P450 enzyme (CYP1A2, CYP2C9, CYP2C19, CYP2D6, and CYP3A) substrates.
(§2) The primary objective of the study was to evaluate the effect of rivoceranib 700 mg once daily (QD) on the pharmacokinetics (PK) of various CYP substrates to determine drug-drug interactions of rivoceranib.
(§3) This was an open-label, 2-treatment, fixed-sequence drug-drug interaction phase 1 study designed to evaluated the impact of multiple oral doses of 700 mg rivoceranib on the single-dose PK of CYP enzyme substrates administered in a 5+1 Cooperstown probe cocktail (caffeine [CYP1A2], S- and R-warfarin [CYP2C9]+vitamin K, omeprazole [CYP2C19], dextromethorphan [CYP2D6], and midazolam [CYP3A]) in healthy volunteers (N=32). On day 1, volunteers received a single dose of the 5+1 cocktail comprising 200 mg caffeine, 10 mg S- and R-warfarin with 10 mg vitamin K, 40 mg omeprazole, 30 mg dextromethorphan, and 2 mg midazolam. Blood samples were collected pre-dose on day 1 and up to 120 hours post-dose for PK analyses of the substrates in the 5+1 cocktail. On days 6 to 15, volunteers received 700 mg rivoceranib once daily for 10 consecutive days with a single dose of the 5+1 cocktail administered on day 11. Blood samples were collected pre-dose on day 11 and up to 120 hours post cocktail dosing (day 16) for PK analyses. Each dosing was under fasted conditions. There was a washout period of 5 days between day 1 dosing and the first rivoceranib dose on day 6; the 2 cocktail dosings were spaced by 10 days.

[2] = test system: CYP3A4/5; assay: Example 1 pharmacokinetic interaction study, rivoceranib 200 mg + Cooperstown 5+1 cocktail: midazolam probe; conditions: for AUC(0-t), Geometric Mean Ratio, (Cooperstown Cocktail + Rivoceranib)/Cooperstown Cocktail Alone / AUC(0-∞), Geometric Mean Ratio, (Cooperstown Cocktail + Rivoceranib)/Cooperstown Cocktail Alone / Cmax, Geometric Mean Ratio, (Cooperstown Cocktail + Rivoceranib)/Cooperstown Cocktail Alone: rivoceranib 200 mg daily, D11 vs D1
[3] = molecular target: CYP2C19 (Homo sapiens, UniProt P33261); conditions: in vivo, po
[4] = molecular target: T1, CYP2D6 (Homo sapiens, UniProt P10635); assay: Example 2 phase 1 drug-drug interaction study, rivoceranib 700 mg QD + 5+1 cocktail: dextromethorphan probe; conditions: for AUC(0-t) / AUC(0-inf) / Cmax: human, in vivo, healthy volunteers; for AUC(0-t), Geometrical mean Ratio, % (90% CI) / AUC(0-∞), Geometrical mean Ratio, % (90% CI) / Cmax, Geometrical mean Ratio, % (90% CI): rivoceranib 700 mg QD, 100*LSM Rivoceranib Plus 5+1 Cocktail/LSM 5+1 Cocktail Alone
Description: as §1, §2, §3

[5] = molecular target: T1, CYP2D6; assay: Example 1 pharmacokinetic interaction study, rivoceranib 200 mg + Cooperstown 5+1 cocktail: dextromethorphan probe; conditions: for AUC(0-t), Geometric Mean Ratio, (Cooperstown Cocktail + Rivoceranib)/Cooperstown Cocktail Alone / AUC(0-∞), Geometric Mean Ratio, (Cooperstown Cocktail + Rivoceranib)/Cooperstown Cocktail Alone / Cmax, Geometric Mean Ratio, (Cooperstown Cocktail + Rivoceranib)/Cooperstown Cocktail Alone: rivoceranib 200 mg daily, D11 vs D1
[6] = healthy volunteers, 5+1 cocktail day 11 + rivoceranib 700 mg QD days 6-15
[7] = healthy volunteers, single oral 5+1 cocktail dose day 1, fasted
[8] = Geometric LSM, Rivoceranib plus 5 + 1 cocktail, 5+1 cocktail day 11 + rivoceranib 700 mg QD days 6-15
[9] = Mean (CV %), Rivoceranib plus 5 + 1 cocktail, 5+1 cocktail day 11 + rivoceranib 700 mg QD days 6-15
[10] = po, Geometric LSM, 5 + 1 cocktail alone, single oral 5+1 cocktail dose day 1, fasted
[11] = po, Mean (CV %), 5 + 1 cocktail alone, single oral 5+1 cocktail dose day 1, fasted
[12] = rivoceranib 200 mg once daily, oral substrate
[13] = Geometric LSM, Rivoceranib plus 5 + 1 cocktail, healthy volunteers, 5+1 cocktail day 11 + rivoceranib 700 mg QD days 6-15
[14] = Mean (CV %), Rivoceranib plus 5 + 1 cocktail, healthy volunteers, 5+1 cocktail day 11 + rivoceranib 700 mg QD days 6-15
[15] = po, 2 mg, Geometric LSM, 5 + 1 cocktail alone, healthy volunteers, single oral 5+1 cocktail dose day 1, fasted
[16] = po, 2 mg, Mean (CV %), 5 + 1 cocktail alone, healthy volunteers, single oral 5+1 cocktail dose day 1, fasted

CYP2C19, sequence (P33261 whole entry): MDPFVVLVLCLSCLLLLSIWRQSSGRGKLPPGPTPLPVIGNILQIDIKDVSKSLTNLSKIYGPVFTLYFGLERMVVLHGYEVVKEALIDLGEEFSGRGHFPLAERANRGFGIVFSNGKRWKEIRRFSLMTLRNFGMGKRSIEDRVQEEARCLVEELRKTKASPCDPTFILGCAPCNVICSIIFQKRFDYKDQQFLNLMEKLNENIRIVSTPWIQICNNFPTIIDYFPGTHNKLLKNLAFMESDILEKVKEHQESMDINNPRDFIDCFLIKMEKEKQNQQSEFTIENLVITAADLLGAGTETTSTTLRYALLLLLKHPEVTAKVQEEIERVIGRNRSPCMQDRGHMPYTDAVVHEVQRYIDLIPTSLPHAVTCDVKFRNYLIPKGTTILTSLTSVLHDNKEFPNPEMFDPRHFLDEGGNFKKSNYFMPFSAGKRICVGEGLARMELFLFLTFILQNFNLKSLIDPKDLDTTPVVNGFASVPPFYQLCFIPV
T1 sequence (P10635 whole entry): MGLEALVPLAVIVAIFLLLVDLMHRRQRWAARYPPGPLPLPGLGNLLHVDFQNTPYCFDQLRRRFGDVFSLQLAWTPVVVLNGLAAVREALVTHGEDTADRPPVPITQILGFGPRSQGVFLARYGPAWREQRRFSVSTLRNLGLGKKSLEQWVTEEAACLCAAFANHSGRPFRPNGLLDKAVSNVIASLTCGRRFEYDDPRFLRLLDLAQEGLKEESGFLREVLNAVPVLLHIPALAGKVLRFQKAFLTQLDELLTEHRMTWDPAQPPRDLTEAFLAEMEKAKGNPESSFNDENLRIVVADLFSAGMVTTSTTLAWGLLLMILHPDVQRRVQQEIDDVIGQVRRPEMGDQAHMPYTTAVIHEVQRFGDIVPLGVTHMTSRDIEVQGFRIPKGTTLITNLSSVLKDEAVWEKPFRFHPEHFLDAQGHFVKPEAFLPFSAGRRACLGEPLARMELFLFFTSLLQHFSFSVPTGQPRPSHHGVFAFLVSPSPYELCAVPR

OCc1ncc2n1-c1ccc(Cl)cc1C(c1ccccc1F)=NC2 [1-hydroxymidazolam]
AUC(0-t), Geometric LSM, Rivoceranib plus 5 + 1 cocktail [1, 6]: 13.89
AUC(0-t), Mean (CV %), Rivoceranib plus 5 + 1 cocktail [1, 6]: 14.37
AUC(0-∞), Geometric LSM, Rivoceranib plus 5 + 1 cocktail [1, 6]: 15.16
AUC(0-∞), Mean (CV %), Rivoceranib plus 5 + 1 cocktail [1, 6]: 15.67
Cmax, Geometric LSM, Rivoceranib plus 5 + 1 cocktail [1, 6]: 4.639 ng/mL
Cmax, Mean (CV %), Rivoceranib plus 5 + 1 cocktail [1, 6]: 4.797 ng/mL
AUC(0-t), Geometric LSM, 5 + 1 cocktail alone [1, 7]: 9.643
AUC(0-t), Mean (CV %), 5 + 1 cocktail alone [1, 7]: 9.643
AUC(0-∞), Geometric LSM, 5 + 1 cocktail alone [1, 7]: 10.21
AUC(0-∞), Mean (CV %), 5 + 1 cocktail alone [1, 7]: 10.18
Cmax, Geometric LSM, 5 + 1 cocktail alone [1, 7]: 4.115 ng/mL
Cmax, Mean (CV %), 5 + 1 cocktail alone [1, 7]: 4.115 ng/mL
AUC(0-t), Geometrical mean Ratio, % (90% CI) [1]: 144.05%
AUC(0-∞), Geometrical mean Ratio, % (90% CI) [1]: 148.48%
Cmax, Geometrical mean Ratio, % (90% CI) [1]: 112.73%
AUC(0-t), Geometric Mean Ratio, (Cooperstown Cocktail + Rivoceranib)/Cooperstown Cocktail Alone [2]: 1.2627
AUC(0-∞), Geometric Mean Ratio, (Cooperstown Cocktail + Rivoceranib)/Cooperstown Cocktail Alone [2]: 1.1355
Cmax, Geometric Mean Ratio, (Cooperstown Cocktail + Rivoceranib)/Cooperstown Cocktail Alone [2]: 0.8913

COc1ccc2nc([S+]([O-])Cc3ncc(CO)c(OC)c3C)[nH]c2c1 (stereo not drawn) [5-hydroxyomeprazole]
AUC(0-t), Geometric LS Mean, Cooperstown Cocktail Alone [3]: 6.6476
AUC(0-∞), Geometric LS Mean, Cooperstown Cocktail Alone [3]: 6.6678
Cmax, Geometric LS Mean, Cooperstown Cocktail Alone [3]: 5.3867

COc1ccc2c(c1)[C@]13CCCC[C@@H]1[C@H](C2)N(C)CC3 [dextromethorphan]
AUC(0-t) [4, 8]: 0.0271 µg·h/mL
AUC(0-t) [4, 9]: 0.0237 µg·h/mL
AUC(0-inf) [4, 8]: 0.0362 µg·h/mL
AUC(0-inf) [4, 9]: 0.0332 µg·h/mL
Cmax [4, 8]: 2.78 ng/mL
Cmax [4, 9]: 2.53 ng/mL
AUC(0-t) [4, 10]: 0.0104 µg·h/mL
AUC(0-t) [4, 11]: 0.0104 µg·h/mL
AUC(0-inf) [4, 10]: 0.0133 µg·h/mL
AUC(0-inf) [4, 11]: 0.014 µg·h/mL
Cmax [4, 10]: 1.4 ng/mL
Cmax [4, 11]: 1.4 ng/mL
increase in exposure with rivoceranib ([4]; rivoceranib 700 mg): 2- to 2.7 fold
AUC(0-t), Geometrical mean Ratio, % (90% CI) [4]: 259.87%
AUC(0-∞), Geometrical mean Ratio, % (90% CI) [4]: 272.50%
Cmax, Geometrical mean Ratio, % (90% CI) [4]: 198.80%
AUC(0-t), Geometric Mean Ratio, (Cooperstown Cocktail + Rivoceranib)/Cooperstown Cocktail Alone [5]: 2.5448
AUC(0-∞), Geometric Mean Ratio, (Cooperstown Cocktail + Rivoceranib)/Cooperstown Cocktail Alone [5]: 2.6650
Cmax, Geometric Mean Ratio, (Cooperstown Cocktail + Rivoceranib)/Cooperstown Cocktail Alone [5]: 1.9039
increase in AUC0-∞ on coadministration of rivoceranib relative to Cooperstown 5+1 cocktail only [5, 12]: 144%
increase in Cmax on coadministration of rivoceranib relative to Cooperstown 5+1 cocktail only [5, 12]: 70%

CN1CC[C@@]23CCCC[C@@H]2[C@@H]1Cc1ccc(O)cc13 [dextrorphan]
AUC(0-t) [4, 8]: 0.0337 µg·h/mL
AUC(0-t) [4, 9]: 0.0345 µg·h/mL
AUC(0-inf) [4, 8]: 0.0371 µg·h/mL
AUC(0-inf) [4, 9]: 0.0378 µg·h/mL
Cmax [4, 8]: 4.74 ng/mL
Cmax [4, 9]: 4.88 ng/mL
AUC(0-t) [4, 10]: 0.0261 µg·h/mL
AUC(0-t) [4, 11]: 0.0261 µg·h/mL
AUC(0-inf) [4, 10]: 0.0279 µg·h/mL
AUC(0-inf) [4, 11]: 0.0279 µg·h/mL
Cmax [4, 10]: 4.66 ng/mL
Cmax [4, 11]: 4.66 ng/mL
AUC(0-t), Geometrical mean Ratio, % (90% CI) [4]: 129.07%
AUC(0-∞), Geometrical mean Ratio, % (90% CI) [4]: 133.22%
Cmax, Geometrical mean Ratio, % (90% CI) [4]: 101.70%
AUC(0-t), Geometric Mean Ratio, (Cooperstown Cocktail + Rivoceranib)/Cooperstown Cocktail Alone [5]: 1.1509
AUC(0-∞), Geometric Mean Ratio, (Cooperstown Cocktail + Rivoceranib)/Cooperstown Cocktail Alone [5]: 1.1104
Cmax, Geometric Mean Ratio, (Cooperstown Cocktail + Rivoceranib)/Cooperstown Cocktail Alone [5]: 0.8950

Cc1ncc2n1-c1ccc(Cl)cc1C(c1ccccc1F)=NC2 [midazolam]
AUC(0-t) [1, 13]: 0.0752 µg·h/mL
AUC(0-t) [1, 14]: 0.0755 µg·h/mL
AUC(0-inf) [1, 13]: 0.0821 µg·h/mL
AUC(0-inf) [1, 14]: 0.0825 µg·h/mL
Cmax [1, 13]: 25.7 ng/mL
Cmax [1, 14]: 25.7 ng/mL
AUC(0-t) [1, 15]: 0.0281 µg·h/mL
AUC(0-t) [1, 16]: 0.0281 µg·h/mL
AUC(0-inf) [1, 15]: 0.0297 µg·h/mL
AUC(0-inf) [1, 16]: 0.0297 µg·h/mL
Cmax [1, 15]: 10.8 ng/mL
Cmax [1, 16]: 10.8 ng/mL
increase in exposure following coadministration with rivoceranib ([1]; rivoceranib 700 mg): 2.4- to 2.8 fold
AUC(0-t), Geometrical mean Ratio, % (90% CI) [1]: 267.59%
AUC(0-∞), Geometrical mean Ratio, % (90% CI) [1]: 276.27%
Cmax, Geometrical mean Ratio, % (90% CI) [1]: 237.88%
AUC(0-t), Geometric Mean Ratio, (Cooperstown Cocktail + Rivoceranib)/Cooperstown Cocktail Alone [2]: 1.5573
AUC(0-∞), Geometric Mean Ratio, (Cooperstown Cocktail + Rivoceranib)/Cooperstown Cocktail Alone [2]: 1.4451
Cmax, Geometric Mean Ratio, (Cooperstown Cocktail + Rivoceranib)/Cooperstown Cocktail Alone [2]: 1.1509
increase in AUC0-∞ following coadministration with rivoceranib [2, 12]: 65%
increase in Cmax following coadministration with rivoceranib [2, 12]: 16%

— patent US20260207573A1, “EFFECT OF RIVOCERANIB ON CYTOCHROME P450 ENZYME SUBSTRATES” (ELEVAR THERAPEUTICS, INC., priority 2022, published 2026)
